Results: patent publication US9073858B2, “Methods of targeted drug development” (priority 2010, dated 2015)

Biological target: T1, EGFR (Homo sapiens, UniProt P00533)
T1 construct: endogenous in cells; host or cells: A431 cells (ATCC CRL-1555)
Assay: EGFR in-cell Western (ICW) screening protocol
Assay type: cell-based
Set-up: unit not given here
Settings: initial screen
In short: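 Serum-starved cells treated with compound 4 h at 37 °C, then stimulated with EGF (20 or 0 ng/ml solution added) in its continued presence. In-cell Western on fixed cells: phospho-EGFR (800 channel) normalised to total EGFR (700 channel), % inhibition calculated against EGF-stimulated and unstimulated no-compound wells.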

T1 sequence (P00533 25-1210): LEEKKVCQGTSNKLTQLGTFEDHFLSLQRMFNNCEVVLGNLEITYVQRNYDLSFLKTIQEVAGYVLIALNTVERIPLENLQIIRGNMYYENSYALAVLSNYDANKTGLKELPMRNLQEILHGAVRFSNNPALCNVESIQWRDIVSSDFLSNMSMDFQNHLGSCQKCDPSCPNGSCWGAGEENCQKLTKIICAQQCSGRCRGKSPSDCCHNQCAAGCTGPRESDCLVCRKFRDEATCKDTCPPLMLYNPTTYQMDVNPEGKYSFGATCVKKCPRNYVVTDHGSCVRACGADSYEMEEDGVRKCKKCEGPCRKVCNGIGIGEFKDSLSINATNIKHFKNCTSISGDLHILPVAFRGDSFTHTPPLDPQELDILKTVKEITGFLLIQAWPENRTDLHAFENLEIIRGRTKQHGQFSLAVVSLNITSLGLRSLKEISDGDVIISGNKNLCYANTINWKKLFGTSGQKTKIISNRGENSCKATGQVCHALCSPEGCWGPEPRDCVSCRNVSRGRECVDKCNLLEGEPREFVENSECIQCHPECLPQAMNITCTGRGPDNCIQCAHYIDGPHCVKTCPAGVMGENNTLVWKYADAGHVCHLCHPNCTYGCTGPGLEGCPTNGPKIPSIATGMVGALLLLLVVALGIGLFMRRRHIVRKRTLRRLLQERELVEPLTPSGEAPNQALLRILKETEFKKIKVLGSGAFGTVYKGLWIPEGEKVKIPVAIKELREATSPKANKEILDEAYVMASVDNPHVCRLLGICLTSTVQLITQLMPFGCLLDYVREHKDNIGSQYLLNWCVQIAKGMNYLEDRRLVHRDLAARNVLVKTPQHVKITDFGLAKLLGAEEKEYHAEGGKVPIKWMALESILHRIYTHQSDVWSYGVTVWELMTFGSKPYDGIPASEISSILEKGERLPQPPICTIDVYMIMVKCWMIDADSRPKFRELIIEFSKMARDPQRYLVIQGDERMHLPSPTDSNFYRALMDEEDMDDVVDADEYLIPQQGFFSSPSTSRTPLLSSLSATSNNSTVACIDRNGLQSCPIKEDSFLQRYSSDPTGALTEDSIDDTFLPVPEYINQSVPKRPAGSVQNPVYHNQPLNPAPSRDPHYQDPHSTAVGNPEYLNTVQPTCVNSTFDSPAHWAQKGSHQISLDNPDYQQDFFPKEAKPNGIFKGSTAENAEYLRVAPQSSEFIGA

ICW Screen: 23.17
Compound: Oc1c(C(Nc2ccccn2)c2ccc(C(F)(F)F)cc2)ccc2cccnc12 (stereo not shown) [compound 10460]
